Assay results as given in patent US8987274B2, “Macrocycles that increase p53 activity and the uses thereof” (Merck Sharp & Dohme Corp, priority 2011, dated 2015).
Read-outs that look alike come from different tables or passages of the source.

Assays:
SJSA = assay: Cell Viability Assay (CellTiter-Glo, ATP quantitation); format: cell-based; details: second value of the cell (SJSA cell viability, e.g. 72 hours), read-out: FP/ SJSA IC50 (nM): SJSA IC50
Experimental: Additionally, compounds were tested for activity at the HDM2 protein using the Cell Viability Assay, which measures the number of viable cells in culture after treatment with the inventive compound for a certain period of time e.g. 72 hours based on quantitation of the ATP present (Cell Viability. IC50). [CellTiter-Glo® Luminescent Cell Viability Assay from Promega].

HDM2 protein = HDM2 protein (Homo sapiens, UniProt Q00987); assay: fluorescence polarization screening assay (FP IC50); format: binding; details: first value of the cell (FP), read-out: FP/ SJSA IC50 (nM): FP IC50
HDM2 protein, sequence (Q00987 whole entry): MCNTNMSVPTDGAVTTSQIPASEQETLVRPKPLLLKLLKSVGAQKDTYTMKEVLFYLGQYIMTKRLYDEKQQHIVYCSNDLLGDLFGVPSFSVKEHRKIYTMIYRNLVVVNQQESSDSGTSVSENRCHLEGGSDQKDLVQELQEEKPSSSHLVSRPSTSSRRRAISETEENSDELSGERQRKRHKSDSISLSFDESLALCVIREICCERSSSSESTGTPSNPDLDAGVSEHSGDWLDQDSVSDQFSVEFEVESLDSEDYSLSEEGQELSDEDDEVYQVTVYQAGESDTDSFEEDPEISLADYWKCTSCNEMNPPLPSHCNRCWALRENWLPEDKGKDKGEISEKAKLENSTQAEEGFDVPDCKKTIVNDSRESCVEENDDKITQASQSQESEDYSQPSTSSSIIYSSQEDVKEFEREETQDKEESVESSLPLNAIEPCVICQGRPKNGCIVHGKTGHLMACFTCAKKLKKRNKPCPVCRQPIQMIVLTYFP
Experimental: The compounds were evaluated to determine activity at the HDM2 protein by known methods such as the fluorescence polarization screening assay that measures the inhibitory concentration that achieves 50% of maximal activity (FP IC50) and the dissociation constant for inhibitor binding (FP Ki). [Zhang et al., J. Analytical Biochemistry 331: 138-146 (2004)].

| Compound | IC50 (SJSA; class symbol) | IC50 (HDM2 protein; class symbol) | IC50 (SJSA; number) | IC50 (HDM2 protein; number) |
| --- | --- | --- | --- | --- |
| O=C1c2c(C(F)(F)F)ccnc2OCC/C=C/C[C@H]2N1CCC[C@@]2(Oc1csc(C(F)(F)F)c1)C(=O)N1CCN(c2ccccc2OCCO)CC1 [Compound 2, 1-[2-(2- HYDROXYETHOXY) PHENYL]-4-[[(10aR)- 6,7,10,10a,11,12,13,14- OCTAHYDRO-16- OXO-1- (TRIFLUOROMETHYL)- 11(S)-[[5- (TRIFLUOROMETHYL)-3- THIENYL]OXY]-16H- PYRIDO[1,2-e:2′,3′-b][1,5] OXAAZACYCLOUNDECIN- 11-YL]CARBONYL] PIPERAZINE.] | 501 to 1000 nM | 1 to 100 nM | – | – |
| O=C1c2c(C(F)(F)F)ccnc2OCCCCCC[C@H]2N1CCC[C@@]2(Oc1csc(C(F)(F)F)c1)C(=O)N1CCN(c2ccccc2OCCO)CC1 [Compound 5, 1-[[(11aR)- 7,8,9,10,11,11a,12,13,14,15- DECAHYDRO-17-OXO-1- (TRIFLUOROMETHYL)- 12-[[5- (TRIFLUOROMETHYL)-3- THIENYL]OXY]-6H,17H- DIPYDRIDO[1,2-e:2′,3′-b][1,5] OXAAZACYCLODODECIN- 12(S)-YL]CARBONYL]-4- [2-(2-HYDROXYETHOXY) PHENYL]PIPERAZINE.] | 1000 to 3000 nM | 1 to 100 nM | – | – |
| O=C1c2c(C(F)(F)F)ccnc2OCCCC/C=C\C[C@H]2N1CCC[C@@]2(Oc1csc(C(F)(F)F)c1)C(=O)N1CCN(c2ccccc2OCCO)CC1 [Compound 6, 1-[[(12aR)- 6,7,8,9,12,12a,13,14,15,16- DECAHYDRO-18-OXO-1- (TRIFLUOROMETHYL)- 13-[[5- (TRIFLUOROMETHYL)-3- THIENYL]OXY]-18H- DIPYDRIDO[1,2-e:2′,3′-b][1,5] OXAAZACYCLOTRIDECIN- 13(S)-YL]CARBONYL]-4- [2-(2-HYDROXYETHOXY) PHENYL]PIPERAZINE.] | – | – | 642 nM | 20 nM |
| O=C1c2c(C(F)(F)F)ccnc2OCCCCCCC[C@H]2N1CCC[C@@]2(Oc1csc(C(F)(F)F)c1)C(=O)N1CCN(c2ccccc2OCCO)CC1 [Compound 7, 1-[[(12aR)-6,7,8,9,10,11,12,12a, 13,14,15,16-DODECAHYDRO- 18-OXO-1- (TRIFLUOROMETHYL)- 13(S)-[[5- (TRIFLUOROMETHYL)-3- THIENYL]OXY]-18H- DIPYRIDO[1,2-e:2′,3′-b][1,5] OXAAZACYCLOTRIDECIN- 13-YL]CARBONYL]-4- [2-(2- HYDROXYETHOXY) PHENYL]PIPERAZINE.] | – | 1 to 100 nM | – | – |
| O=C1c2c(C(F)(F)F)ccnc2OCCCC[C@H]2N1CCC[C@@]2(Oc1csc(C(F)(F)F)c1)C(=O)N1CCN(c2ccccc2OCCO)CC1 [Compound 9, 1-[2-(2- HYDROXYETHOXY) PHENYL]-4-[[(9aR)- 7,8,9,9a,10,11,12,13- OCTAHYDRO-15-OXO-1- (TRIFLUOROMETHYL)- 10(S)-[[5- (TRIFLUOROMETHYL)- 3-THIENYL]OXY]-6H,15H- DIPYRIDO[1,2-e:2′,3′-b][1,5] OXAZECIN-10-YL] CARBONYL]PIPERAZINE.] | – | 1000 to 3000 nM | – | – |

Continued, values first:

| IC50 (SJSA; class symbol) | IC50 (HDM2 protein; class symbol) | IC50 (SJSA; number) | IC50 (HDM2 protein; number) | Compound |
| --- | --- | --- | --- | --- |
| 101 to 500 nM | 1 to 100 nM | – | – | COCCOc1ccccc1N1CCN(C(=O)[C@]2(Oc3csc(C(F)(F)F)c3)CCCN3C(=O)c4c(C(F)(F)F)ccnc4OCC/C=C/C[C@@H]32)CC1 [Compound 1, 1-[2-(2- METHOXYETHOXY) PHENYL]-4-[[(10aR)- 6,7,10,10a,11,12,13,14- OCTAHYDRO-16- OXO-1- (TRIFLUOROMETHYL)- 11(S)-[[5- (TRIFLUOROMETHYL)- 3-THIENYL]OXY]-16H- DIPYRIDO[1,2-e:2′3′-b][1,5] OXOAAZACYCLOUNDECIN- 11-YL]CARBONYL] PIPERAZINE.] |
| 1000 to 3000 nM | 1 to 100 nM | – | – | COCCOc1ccccc1N1CCN(C(=O)[C@]2(Oc3csc(C(F)(F)F)c3)CCCN3C(=O)c4c(C(F)(F)F)ccnc4OCCCC/C=C/C[C@@H]32)CC1 [Compound 3, 1-[[(12aR)- 6,7,8,9,12,12a,13,14,15,16- DECAHYDRO-18-OXO-1- (TRIFLUOROMETHYL)- 13(S)-[[5- (TRIFLUOROMETHYL)-3- THIENYL]OXY]-18H- DIPYRIDO[1,2-e:2′,3′-b][1,5] OXAAZACYCLOTRIDECIN- 13-YL]CARBONYL]-4- [2-(2-METHOXYETHOXY) PHENYL]PIPERAZINE.] |
| 501 to 1000 nM | 1 to 100 nM | – | – | O=C1c2c(C(F)(F)F)ccnc2OCCC/C=C\C[C@H]2N1CCC[C@@]2(Oc1csc(C(F)(F)F)c1)C(=O)N1CCN(c2ccccc2OCCO)CC1 [Compound 4, 1-[2-(2- HYDROXYETHOXY) PHENYL]-4-[[(11aR)- 7,8,11,11a,12,13,14,15- OCTAHYDRO-17-OXO-1- (TRIFLUOROMETHYL)- 12(S)-[[5- (TRIFLUOROMETHYL)-3- THIENYL]OXY]-6H,17H- DIPYRIDO[1,2-e:2′,3′-b][1,5] OXAAZACYCLODODECIN- 12-YL]CARBONYL] PIPERAZINE.] |
| 101 to 500 nM | 1 to 100 nM | – | – | O=C(O)CCCOc1ccccc1N1CCN(C(=O)[C@]2(Oc3csc(C(F)(F)F)c3)CCCN3C(=O)c4c(C(F)(F)F)ccnc4OCCC/C=C\C[C@@H]32)CC1 [Compound 8, 4-[2-[4-[[(11aR)- 7,8,11,11a,12,13,14,15- OCTAHYDRO-17-OXO-1- (TRIFLUOROMETHYL)- 12(S)-[[5- (TRIFLUOROMETHYL)-3- THIENYL]OXY]-6H,17H- DIPYRIDO[1,2-e:2′,3′-b][1,5] OXAAZACYCLODODECIN- 12-YL]CARBONYL]-1- PIPERAZINYL]PHENOXY] BUTANOIC ACID.] |
| 101 to 500 nM | 1 to 100 nM | – | – | N#CC1(c2ccccc2OCCCC2(C(=O)O)CCC2)CCN(C(=O)[C@]2(Oc3csc(C(F)(F)F)c3)CCCN3C(=O)c4c(C(F)(F)F)ccnc4OCCCCCC[C@@H]32)CC1 [Compound 13, 1-[3-[2-[4-CYANO-1- [[(11a)-7,8,9,10,11,11a,12,13, 14,15-DECAHYDRO-17- OXO-1- (TRIFLUOROMETHYL)- 12(S)-[[5- (TRIFLUOROMETHYL)-3- THIENYL]OXY]-6H,17H- DIPYRIDO[1,2-e:2′,3′-b][1,5] OXAAZACYCLODODECIN- 12YL]CARBONYL]-4- PIPERIDINYL]PHENOXY] PROPYL]CYCLOBUTANE- CARBOXYLIC ACID.] |
